Assay results taken from patent US20080200404A1, “Novel Antimalarial 9A-Carbamoyl-Aminoalkyl and 9A-Thiocarbamoyl-Aminoalkyl Azalides” (priority 2005, published 2008).
Values after ≈ are worked out from the molar mass of the structure shown.

How the values were obtained:
Plasmodium cynomolgi = conditions: rhesus monkey; cited from earlier work
Plasmodium falciparum = conditions: non-immune patients, as compared to controls; cited from earlier work
Plasmodium vivax = conditions: non-immune patients, as compared to controls; cited from earlier work
[1] = test system: Plasmodium yoelli nigeriensis; conditions: cited from earlier work
Plasmodium berghei = conditions: cited from earlier work
[2] = test system: Plasmodium falciparum TM91C235; experiment: In vitro antimalarial [3H]-hypoxanthine incorporation assay, TM91C235; assay type: cell-based; conditions: P. falciparum TM91C235 (multiple drug resistant isolate), 72 hours exposure
Outline: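 Multidrug-resistant P. falciparum TM91C235 was run at 0.4% parasitemia and 1% hematocrit in folate/PABA-free RPMI-1640 with ALBUMAX, at 37° C under 5% CO2/5% O2. Compound was tested in duplicate at 25,000, 2,500 and 25 ng/ml, preexposed 48 h, then [3H]-hypoxanthine was added (72 h total). Counts are expressed relative to untreated parasite controls.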

[3] = test system: Plasmodium falciparum clone CDC/Sierra Leone I (D-6); experiment: In vitro antimalarial [3H]-hypoxanthine incorporation serial dilution assay, D6; assay type: cell-based; conditions: P. falciparum D6, 72 hours exposure
Outline: (§1)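 Blood-stage cultures in RPMI-1640 with 6% A+ erythrocytes and human plasma or ALBUMAX, 37° C under 5% CO2/5% O2. Compounds in two-fold dilutions over 11 concentrations; [3H]-hypoxanthine incorporation after 72 h total incubation, CPM normalised to untreated parasite controls; IC50 by non-linear logistic fit.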

[4] = test system: Plasmodium falciparum clone CDC/Indochina III (W-2); experiment: In vitro antimalarial [3H]-hypoxanthine incorporation serial dilution assay, W2; assay type: cell-based; conditions: P. falciparum W2, 72 hours exposure
Outline: as §1

For CC[C@H]1OC(=O)[C@H](C)[C@@H](O[C@H]2C[C@@](C)(OC)[C@@H](O)[C@H](C)O2)[C@H](C)[C@@H](O[C@@H]2O[C@H](C)C[C@H](N(C)C)[C@H]2O)[C@](C)(O)C[C@@H](C)CN(C)[C@H](C)[C@@H](O)[C@]1(C)O [azithromycin], the “efficacy in monkey model” value (Plasmodium cynomolgi) is listed as “active”, the “prophylactic efficacy for Plasmodium falciparum” value (Plasmodium falciparum) is listed as 71.6% and the “prophylactic efficacy for Plasmodium vivax” value (Plasmodium vivax) is listed as 98.9%.

For midecamycinin, the “efficacy in monkey model” value (Plasmodium cynomolgi) is given as “no efficacy”, the “activity in mouse model” value [1] is given as “active” and the “activity in mouse model” value (Plasmodium berghei) is given as “active”.

In the case of CCC(C)NC(=O)NCCCN1C[C@H](C)C[C@@](C)(O)[C@H](O[C@@H]2O[C@H](C)C[C@H](N(C)C)[C@H]2O)[C@@H](C)[C@H](O[C@H]2C[C@@](C)(OC)[C@@H](O)[C@H](C)O2)[C@@H](C)C(=O)O[C@H](CC)[C@@](C)(O)[C@H](O)[C@H]1C (stereo partly drawn) [Example 55], the IC50 ([2]; Plasmodium falciparum) is reported as 1.05 µg/mL (≈ 1.18 µM), the IC50 ([3]; Plasmodium falciparum, D6, 72 h, compared with azithromycin, read-out: IC50 D6 (class symbol)) is reported as > 0.797 µg/mL and the IC50 ([4]; Plasmodium falciparum) is reported as 0.435 µg/mL (≈ 0.489 µM).

With CCC1OC(=O)C(C)C(OC2CC(C)(OC)C(O)C(C)O2)C(C)C(OC2OC(C)CC(N(C)C)C2O)C(C)(O)CC(C)CN(CCNC(=O)NCc2ccccc2)C(C)C(O)C1(C)O (stereo not drawn) [Example 3, 9-Deoxo-9-dihydro-9a-(N′-benzylcarbamoyl-β-aminoethyl)-9a-aza-9a-homoerythromycin A] the “IC50 TM91C235” value [2] was 0.1547 µg/mL (≈ 0.17 µM), the “IC50 D6” value [3] was 0.292 µg/mL (≈ 0.32 µM) and the “IC50 W2” value [4] was 0.2617 µg/mL (≈ 0.287 µM).
